Laboratory results as given in patent publication US11141452B2, “Bifunctional compounds for relief of pain comprising an opioid receptor agonist moiety and a NK1 receptor antagonist moiety and methods for treating pain” (THE ARIZONA BOARD OF REGENTS ON BEHALF OF THE UNIVERSITY OF …, priority 2014, dated 2021).
“And” between values parts separate entries of the source, which are not always exact repeats. Equal values may be shown once. Read-outs that look alike come from different tables or passages of the source. Non-standard residues stand in square brackets, D forms with d. Residues, ends and D or L forms follow the SMILES beside them. *: point of attachment. NH(3,5-(CF3)2-benzyl) = FC(F)(F)c1cc(CN*)cc(C(F)(F)F)c1

Assays:
MOR [1] = experiment: Guinea pig isolated ileum (GPI) functional assay; assay type: cell-based; conditions: for IC50: agonist activity, electrically stimulated tissue, read-out: GPI (MOR) IC50
DOR [2] = biological target: T1, DOR (Mus musculus, UniProt P32300); experiment: Mouse isolated vas deferens (MVD) functional assay; assay type: cell-based
T1 construct: Male ICR mice under CO2 anesthesia were sacrificed by cervical dislocation and the vasa differentia removed; from tissue; host or cells: mouse vas deferens (ICR mice)

NK1R = biological target: T2, NK1R (Cavia porcellus, UniProt P30547); experiment: GPI/LMMP functional assay at NK1R (agonist and antagonist testing); assay type: cell-based, guinea pig; conditions: for GPI/LMMP (NK1R) Agonist: agonist activity at the concentration in the cell
T2 construct: The longitudinal muscle with myenteric plexus (LMMP) was carefully separated from the circular muscle; from tissue; host or cells: guinea pig ileum longitudinal muscle with myenteric plexus

MOR [3] = experiment: Radioligand binding assay at μ opioid receptor; conditions: for Log[IC50±] (μ): log IC50 ± error
Protocol: (§1) Binding affinities of these ligands were measured on radioligand binding assays. […] ([43]).

DOR [4] = biological target: DOR (Homo sapiens, UniProt P41143); experiment: Radioligand binding assay at δ opioid receptor
Protocol: as §1

hNK1 = biological target: T3, hNK1 (Homo sapiens, UniProt P25103); experiment: hNK1/CHO cell membrane radioligand binding assay ([3H]SP); conditions: ratio human/rat NK1
T3 construct: expressed in transfected cells; host or cells: CHO

[5] = antagonist activity, read-out: GPI/LMMP (NK1R) Ke (nM) ± S.E.M.
[6] = MVD (DOR) IC50 (nM), agonist activity, electrically stimulated tissue
[7] = GPI/LMMP (NK1R) Ke (nM) ± S.E.M., antagonist activity

T2 sequence (P30547 whole entry): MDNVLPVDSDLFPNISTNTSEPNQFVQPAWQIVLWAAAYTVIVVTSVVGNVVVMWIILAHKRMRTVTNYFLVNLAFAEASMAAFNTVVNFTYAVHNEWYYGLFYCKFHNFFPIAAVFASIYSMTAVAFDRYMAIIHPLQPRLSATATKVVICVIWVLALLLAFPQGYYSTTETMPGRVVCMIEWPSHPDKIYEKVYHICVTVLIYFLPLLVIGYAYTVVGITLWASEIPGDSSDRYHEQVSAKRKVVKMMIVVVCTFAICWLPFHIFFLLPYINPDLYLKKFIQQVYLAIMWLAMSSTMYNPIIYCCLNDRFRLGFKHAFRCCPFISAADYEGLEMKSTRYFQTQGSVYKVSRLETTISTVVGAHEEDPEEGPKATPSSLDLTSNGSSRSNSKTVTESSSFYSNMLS
Chain of DOR (Homo sapiens, UniProt P41143) (P41143 whole entry): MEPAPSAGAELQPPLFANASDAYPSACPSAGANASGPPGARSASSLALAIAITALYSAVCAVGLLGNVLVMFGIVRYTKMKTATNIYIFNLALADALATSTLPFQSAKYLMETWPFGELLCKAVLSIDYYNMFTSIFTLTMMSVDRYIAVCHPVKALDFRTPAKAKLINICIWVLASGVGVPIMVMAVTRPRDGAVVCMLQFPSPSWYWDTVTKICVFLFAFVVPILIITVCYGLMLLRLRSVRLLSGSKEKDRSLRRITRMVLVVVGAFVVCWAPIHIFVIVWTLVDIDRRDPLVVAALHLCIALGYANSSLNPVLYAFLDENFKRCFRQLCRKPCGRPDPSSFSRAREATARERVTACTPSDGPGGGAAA
T3 sequence (P25103 whole entry): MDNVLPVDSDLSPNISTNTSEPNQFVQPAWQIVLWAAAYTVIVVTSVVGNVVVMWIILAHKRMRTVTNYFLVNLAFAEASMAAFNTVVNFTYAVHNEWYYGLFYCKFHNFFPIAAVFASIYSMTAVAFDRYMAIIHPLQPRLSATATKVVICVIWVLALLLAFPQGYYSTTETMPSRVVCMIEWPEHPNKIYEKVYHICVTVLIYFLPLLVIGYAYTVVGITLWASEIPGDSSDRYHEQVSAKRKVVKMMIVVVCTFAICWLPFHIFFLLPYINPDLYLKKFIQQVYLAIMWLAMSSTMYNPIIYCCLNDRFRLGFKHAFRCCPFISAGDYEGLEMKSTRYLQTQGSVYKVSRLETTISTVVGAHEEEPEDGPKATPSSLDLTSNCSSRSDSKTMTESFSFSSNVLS
T1 sequence (P32300 whole entry): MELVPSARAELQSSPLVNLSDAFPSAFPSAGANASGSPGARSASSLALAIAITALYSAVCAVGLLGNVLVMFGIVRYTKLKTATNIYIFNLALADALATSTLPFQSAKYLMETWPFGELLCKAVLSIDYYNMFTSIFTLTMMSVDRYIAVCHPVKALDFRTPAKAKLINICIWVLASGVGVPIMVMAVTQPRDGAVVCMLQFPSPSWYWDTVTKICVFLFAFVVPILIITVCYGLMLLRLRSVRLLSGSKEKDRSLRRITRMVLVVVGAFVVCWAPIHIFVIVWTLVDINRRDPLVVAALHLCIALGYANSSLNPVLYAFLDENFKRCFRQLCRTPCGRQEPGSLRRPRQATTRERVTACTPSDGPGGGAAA

| SMILES | IC50 (MOR [1]) | higher agonist activity at DOR compared to MOR (functional assays) (DOR [2]) | Kb (NK1R; [5]) | Ki (MOR [3]) | Log[IC50±] (μ) (MOR [3]) | IC50 (DOR [2]) | IC50 (DOR [4]) | Ki (DOR [4]; Ki^δ (nM)) | Kb (NK1R) | Ki^hNK1/Ki^rNK1 (hNK1) | IC50 (DOR [2]; [6]) | GPI/LMMP (NK1R) Agonist (NK1R) | Kb (NK1R; [7]) | Ki^μ/Ki^δ (MOR [3]; ratio of binding affinities MOR/DOR) | GPI/MVD IC50 ratio (MOR [1]) |
| --- | --- | --- | --- | --- | --- | --- | --- | --- | --- | --- | --- | --- | --- | --- | --- |
| CC(C)C[C@H](NC(=O)[C@@H]1CCCN1C(=O)[C@H](Cc1ccc(O)cc1)NC(=O)CNC(=O)[C@H](Cc1ccccc1)NC(=O)[C@@H](C)NC(=O)[C@@H](N)Cc1ccc(O)cc1)C(=O)N[C@@H](Cc1c[nH]c2ccccc12)C(=O)NCc1cc(C(F)(F)F)cc(C(F)(F)F)c1 [AKG114] (H-Y[dA]FGYPLW-{NH(3,5-(CF3)2-benzyl)}) | 110 nM and 112 nM | 4 times | 15 nM | 4 nM | −8.02 ± 0.04 | – | – | – | – | – | – | – | – | – | – |
| CC(C)C[C@H](NC(=O)[C@@H]1CCCN1C(=O)CCCNC(=O)[C@H](Cc1ccccc1)N(C)C(=O)CNC(=O)[C@@H](C)NC(=O)[C@@H](N)Cc1ccc(O)cc1)C(=O)N[C@@H](Cc1c[nH]c2ccccc12)C(=O)NCc1cc(C(F)(F)F)cc(C(F)(F)F)c1 [AKG123, H-Tyr-D-Ala-Gly-NMePhe-γ-Abu-Pro-Leu-Trp-NH-Bn(3′,5′-(CF3)2)] | 424 ± 148 nM | – | – | 9 nM | −7.73 ± 0.07 | 50.1 ± 17.4 nM | 5.89 nM | 3 nM | 2.3 ± 0.7 nM | – | – | – | – | – | – |
| Cc1cc(O)cc(C)c1C[C@H](N)C(=O)N[C@H](C)C(=O)NCC(=O)N[C@@H](Cc1ccc(Cl)cc1)C(=O)N1CCC[C@H]1C(=O)N[C@@H](CC(C)C)C(=O)N[C@@H](Cc1c[nH]c2ccccc12)C(=O)NCc1cc(C(F)(F)F)cc(C(F)(F)F)c1 [AKG191, H-Dmt-D-Ala-Gly-Phe(4-Cl)-Pro-Leu-Trp-NH-Bn(3′,5′-(CF3)2)] | 166 ± 71.6 nM | – | – | 2 nM | −8.33 ± 0.09 | – | – | – | – | 1/9 | 25.4 ± 7.7 nM | None at 300 nM | – | – | – |
| CCCC[C@H](NC(=O)[C@H](Cc1ccccc1)N(C)C(=O)CNC(=O)[C@@H](C)NC(=O)[C@@H](N)Cc1ccc(O)cc1)C(=O)N1CCC[C@H]1C(=O)N[C@@H](CC(C)C)C(=O)N[C@@H](Cc1c[nH]c2ccccc12)C(=O)NCc1cc(C(F)(F)F)cc(C(F)(F)F)c1 [AKG112, H-Tyr-D-Ala-Gly-NMePhe-Nle-Pro-Leu-Trp-NH-Bn(3′,5′-(CF3)2)] | 718 nM | – | – | 13 nM | −7.51 ± 0.04 | – | 50.1 nM | – | – | – | 11.6 ± 2.55 nM | – | 5.4 ± 2.1 nM | – | – |
| Cc1cc(O)cc(C)c1C[C@H](N)C(=O)N[C@H](C)C(=O)NCC(=O)N(C)[C@@H](Cc1ccc(F)cc1)C(=O)N1CCC[C@H]1C(=O)N[C@@H](CC(C)C)C(=O)N[C@@H](Cc1c[nH]c2ccccc12)C(=O)NCc1cc(C(F)(F)F)cc(C(F)(F)F)c1 [AKG128, H-Dmt-D-Ala-Gly-NMePhe(4-F)-Pro-Leu-Trp-NH-Bn(3′,5′-(CF3)2)] | 76.5 nM | ~7 times | – | 1 nM | −8.55 ± 0.18 | – | – | – | – | 1/13 | 11.5 ± 5.6 nM | None at 30 nM | 11.2 ± 2.7 nM | 1/4 | – |
| CC(C)C[C@H](NC(=O)[C@@H]1CCCN1C(=O)[C@H](Cc1ccccc1)N(C)C(=O)CNC(=O)[C@@H](C)NC(=O)[C@@H](N)Cc1ccc(O)cc1)C(=O)N[C@@H](Cc1c[nH]c2ccccc12)C(=O)NCc1cc(C(F)(F)F)cc(C(F)(F)F)c1 [AKG117, H-Tyr-D-Ala-Gly-NMePhe-Pro-Leu-Trp-NH-Bn(3′,5′-(CF3)2)] | 230 nM and 232 nM | – | – | – | −7.05 ± 0.04 | – | – | – | – | – | 100 nM | – | – | – | – |
| CC(C)C[C@H](NC(=O)[C@@H]1CCCN1C(=O)Cc1ccc(CNC(=O)[C@H](Cc2ccccc2)N(C)C(=O)CNC(=O)[C@@H](C)NC(=O)[C@@H](N)Cc2ccc(O)cc2)cc1)C(=O)N[C@@H](Cc1c[nH]c2ccccc12)C(=O)NCc1cc(C(F)(F)F)cc(C(F)(F)F)c1 [AKG178, H-Tyr-D-Ala-Gly-NMePhe-4-Ampa-Pro-Leu-Trp-NH-Bn(3′,5′-(CF3)2)] | 650 nM and 654 nM | 15 times | 76 nM | – | – | – | – | – | – | 1/21 | – | None at 300 nM | – | – | 15/1 |
